From patent US8664245B2, “Fumarate salts of a histamine H3 receptor antagonist” (Sanofi, priority 2009, dated 2014)

Key:
Format in all cases: physicochemical
[1] = Stability testing: storage at 60° C./80% RH for two weeks; conditions: solid, 14 days
Protocol: 2. Storage at 60° C./80% RH and Ambient RH for Two Weeks.
A glass desiccation chamber was pre-equilibrated overnight with a saturated KBr solution to 79.3% RH within an […] oven. Approximately 400 mg of the difumarate monohydrate was weighed into a scintillation vial and placed into the chamber, which was then sealed to maintain the environment. Samples were tested for appearance, then diluted with ethanol to approximately 1 mg/mL and analyzed for related substances and optical enantiomer by HPLC.

[2] = Dynamic Vapor Sorption (DVS) water sorption profile
Protocol: The water sorption profile of a compound of the invention is determined using a SMS Instruments Dynamic Vapor Sorption Analyzer (DVS) Model DVS-Advantage. Relative humidity (RH) and weight are calibrated using standards. The powder of the relevant compound of the invention is loaded and dried at 0% RH for 3 hours prior to starting the experiment. The RH is stepped from 0.1 to 94.4% in 11 steps. The specimen weight is considered constant at each step when percent mass change is less than 0.01% over a 5-minute interval with a minimum absolute equilibration time of 15 minutes and maximum equilibration time of 180 minutes.

[3] = Stability testing: storage at 60° C. and ambient RH for two weeks; conditions: solid, ambient RH, 14 days
Protocol: Stability Testing 1. Storage at 60° C. and Ambient RH for Two Weeks.
Approximately 400 mg of the difumarate monohydrate salt was weighed into a scintillation vial and placed into an oven set to 60° C. The sample was tested for appearance, then diluted with ethanol to approximately 1 mg/mL and analyzed for related substances and optical enantiomer by HPLC.

[4] = Stability testing: storage at 80° C./80% RH for 4 days; conditions: solid
Protocol: 3. Storage at 80° C./80% RH for 4 Days
A glass desiccation chamber was pre-equilibrated overnight with a saturated KBr solution to 79.3% RH within an 80° C. oven. Approximately 100 mg of the difumarate monohydrate salt was weighed into respective scintillation vials and these vials were placed into the chamber, which was then sealed to maintain the environment. The sample was tested on day 4 for appearance, then diluted with ethanol to approximately 1 mg/mL and analyzed by HPLC versus a control (time 0) sample.

Compound: CN1CCC[C@H]1CCNS(=O)(=O)c1ccc2c(c1)CN(CC1CCCCC1)CC2.O=C(O)/C=C/C(=O)O [difumarate monohydrate salt, 2-(cyclohexylmethyl)-N-{2-[(2S)-1-methylpyrrolidin-2-yl]ethyl}-1,2,3,4-tetrahydroisoquinoline-7-sulfonamide difumarate monohydrate]
- chemical stability (related substances and optical enantiomer by HPLC, appearance) [1]: stable in the solid state with a minimal increase in impurity levels and no observable change in appearance
- physical stability (physical form by XRPD and DSC-TGA) [1]: no observable change in physical form
- Change in Mass (%) - dry, Desorption ([2]; 0.6 % RH, 25° C.): 0.0%
- Change in Mass (%) - dry, Sorption ([2]; 0.6 % RH, 25° C.): 0.0%
- Change in Mass (%) - dry, Desorption ([2]; 10.2 % RH, 25° C.): 2.9%
- Change in Mass (%) - dry, Sorption ([2]; 10.2 % RH, 25° C.): 2.8%
- Change in Mass (%) - dry, Desorption ([2]; 19.6 % RH, 25° C.): 2.9%
- Change in Mass (%) - dry, Sorption ([2]; 19.6 % RH, 25° C.): 2.9%
- Change in Mass (%) - dry, Desorption ([2]; 29.4 % RH, 25° C.): 3.0%
- Change in Mass (%) - dry, Sorption ([2]; 29.4 % RH, 25° C.): 3.0%
- Change in Mass (%) - dry, Desorption ([2]; 38.5 % RH, 25° C.): 3.0%
- Change in Mass (%) - dry, Sorption ([2]; 38.5 % RH, 25° C.): 3.0%
- Change in Mass (%) - dry, Desorption ([2]; 48.5 % RH, 25° C.): 3.0%
- Change in Mass (%) - dry, Sorption ([2]; 48.5 % RH, 25° C.): 3.0%
- Change in Mass (%) - dry, Desorption ([2]; 57.5 % RH, 25° C.): 3.1%
- Change in Mass (%) - dry, Sorption ([2]; 57.5 % RH, 25° C.): 3.1%
- Change in Mass (%) - dry, Desorption ([2]; 67.1 % RH, 25° C.): 3.1%
- Change in Mass (%) - dry, Sorption ([2]; 67.1 % RH, 25° C.): 3.1%
- Change in Mass (%) - dry, Desorption ([2]; 77.0 % RH, 25° C.): 3.2%
- Change in Mass (%) - dry, Sorption ([2]; 77.0 % RH, 25° C.): 3.1%
- Change in Mass (%) - dry, Desorption ([2]; 87.0 % RH, 25° C.): 3.2%
- Change in Mass (%) - dry, Sorption ([2]; 87.0 % RH, 25° C.): 3.2%
- Change in Mass (%) - dry, Desorption ([2]; 94.2 % RH, 25° C.): 3.3%
- Change in Mass (%) - dry, Sorption ([2]; 94.2 % RH, 25° C.): 3.3%
- chemical stability (related substances and optical enantiomer by HPLC, appearance) [3]: stable in the solid state with a minimal increase in impurity levels and no observable change in appearance
- physical stability (physical form by XRPD and DSC-TGA) [3]: no observable change in physical form
- chemical stability (HPLC versus time 0 control, appearance) [4]: stable in the solid state with no observable chemical change

Compound: CN1CCC[C@H]1CCNS(=O)(=O)c1ccc2c(c1)CN(CC1CCCCC1)CC2.O=C(O)/C=C/C(=O)O [hemifumarate dihydrate, 2-(cyclohexylmethyl)-N-{2-[(2S)-1-methylpyrrolidin-2-yl]ethyl}-1,2,3,4-tetrahydroisoquinoline-7-sulfonamide hemifumarate dihydrate]
- Change in Mass (%) - dry, Desorption ([2]; 0.6 % RH, 25° C. (Table 8)): 0.00%
- Change in Mass (%) - dry, Sorption ([2]; 0.6 % RH, 25° C. (Table 8)): 0.00%
- Change in Mass (%) - dry, Desorption ([2]; 10.1 % RH, 25° C.): 0.56%
- Change in Mass (%) - dry, Sorption ([2]; 10.1 % RH, 25° C.): 0.25%
- Change in Mass (%) - dry, Desorption ([2]; 19.4 % RH, 25° C.): 6.71%
- Change in Mass (%) - dry, Sorption ([2]; 19.4 % RH, 25° C.): 3.53%
- Change in Mass (%) - dry, Desorption ([2]; 29.0 % RH, 25° C.): 6.85%
- Change in Mass (%) - dry, Sorption ([2]; 29.0 % RH, 25° C.): 3.87%
- Change in Mass (%) - dry, Desorption ([2]; 37.8 % RH, 25° C.): 6.89%
- Change in Mass (%) - dry, Sorption ([2]; 37.8 % RH, 25° C.): 6.50%
- Change in Mass (%) - dry, Desorption ([2]; 47.7 % RH, 25° C.): 6.97%
- Change in Mass (%) - dry, Sorption ([2]; 47.7 % RH, 25° C.): 6.89%
- Change in Mass (%) - dry, Desorption ([2]; 56.4 % RH, 25° C.): 7.10%
- Change in Mass (%) - dry, Sorption ([2]; 56.4 % RH, 25° C.): 7.01%
- Change in Mass (%) - dry, Desorption ([2]; 65.7 % RH, 25° C.): 7.21%
- Change in Mass (%) - dry, Sorption ([2]; 65.7 % RH, 25° C.): 7.13%
- Change in Mass (%) - dry, Desorption ([2]; 75.3 % RH, 25° C.): 7.33%
- Change in Mass (%) - dry, Sorption ([2]; 75.3 % RH, 25° C.): 7.32%
- Change in Mass (%) - dry, Desorption ([2]; 84.8 % RH, 25° C.): 7.66%
- Change in Mass (%) - dry, Sorption ([2]; 84.8 % RH, 25° C.): 7.68%
- Change in Mass (%) - dry, Desorption ([2]; 92.0 % RH, 25° C.): 8.25%
- Change in Mass (%) - dry, Sorption ([2]; 92.0 % RH, 25° C.): 8.31%
